This is an account of results in patent US8636983B2, “Aminoglycoside and fosfomycin combination for treatment of ventilator associated pneumonia (VAP) and ventilator associated tracheal (VAT) bronchitis” (priority 2011, dated 2014).

Data set [1] in a line: pH and osmolality of amikacin starting material and solution. Format: physicochemical. The following applies: starting material. An excerpt:
Amikacin Base, EP is compendial (Ph Eur) and is manufactured by ACS Dobfar S.p.a under DMF 13762. The API is manufactured in Bergamo, Italy. Fosfomycin Disodium is compendial (Ph Eur) and is manufactured by Ercros, S.A. under DMF 14341. The API is manufactured in Madrid, Spain. Rather than commercial amikacin sulfate, the amikacin base is the starting material. Amikacin base has a pH of approximately 11, and large amounts of HCl are required to neutralize the pH. In the two-part formulation (used to combine with equal volumes of 40 mg/mL fosfomycin to generate the final formulation of 50 mg/mL amikacin, 20 mg/mL fosfomycin), the amikacin 100 mg/mL solution has a final pH of 7.5-7.6 and has an osmolality of approximately 533 mOsmol/kg, of which only approximately 170 mOsmol/kg is due to the amikacin, the balance is from the chloride anion. This concentration of chloride anion provides the permeant anion that will prevent cough.
In contrast, the starting pH of amikacin sulfate is 3.5-5.5 and little or no HCl is needed to neutralize the pH of the solution. Note that in the Neiderman paper (supra) amikacin sulfate was delivered as an aerosol to patients with VAP, and bronchospasm was reported in some patients. […] As described above, a final formulation has an amikacin concentration of 50 mg/ml and chloride anion concentration of approximately 265 meq/liter. […]

A further data set concerns Klebsiella pneumoniae. Kind of data set: MIC by CLSI agar dilution, amikacin-resistant K. pneumoniae strains (SENTRY). It is filed as cell-based. The following applies: 20 K. pneumoniae isolates. An excerpt: (§1) Sixty-two amikacin-resistant strains were selected from a worldwide antimicrobial surveillance collection (SENTRY), which contains 35,000 organisms from six continents (56/62 organisms collected in 2011).
In general terms: In agar dilution, organisms are placed on agar that contains the substance at set levels.

In the next data set the test system is Acinetobacter baumannii. Put plainly: MIC by CLSI agar dilution, amikacin-resistant A. baumannii strains (SENTRY). It is filed as cell-based. The following applies: for MIC50: 21 A. baumannii isolates.
From the text: as §1

The test system of data set [2] is Stenotrophomonas maltophilia. As to conditions: Zhanel et al.; cited from earlier work.
Data set [3] is described as follows: in vivo. The following applies: dog; for Cmax: both, beagle. How it is done: A GLP (Good Laboratory Practice) study was performed using 24 beagle dogs allocated to four dose groups (three males and three females per group) and exposed to aerosol generated with the PARI Investigational eFlow® Inline Nebulizer System using a closed-faced mask fitted with a mouth tube. The aerosols contained either control (water for injection) in Group 1 or a combined formulation containing 50 mg/mL amikacin and 20 mg/mL fosfomycin pH adjusted with HCl for Groups 2 to 4. Aerosol concentrations were determined on Days 1 and 7. The treatment period was for seven days with termination of the dogs on Day 8.
Toxicokinetic parameters were estimated using WinNonlin pharmacokinetic software version 5.2.1 (Pharsight Corp.). A non-compartmental approach consistent with the extravascular route of administration was used for parameter estimation. All parameters were generated from individual amikacin and fosfomycin concentrations in plasma from Days 1 and 7.

Data set [4] concerns Pseudomonas aeruginosa. Kind of data set: MIC by CLSI agar dilution, amikacin-resistant P. aeruginosa strains (SENTRY). Format: cell-based. As to conditions: 21 P. aeruginosa isolates.
From the text: as §1

The subject of data set [5] is 62 Gram-negative, amikacin-resistant pathogens. Put plainly: MIC by CLSI agar dilution, all 62 amikacin-resistant isolates. It is filed as cell-based. The following applies: for MIC50: All 62 isolates.
From the text: as §1

Another data set can be described thus: clinical. As to conditions: both, human, in vivo. How it is done: Adult patients having a clinical diagnosis of VAP, with a Gram-positive or Gram-negative organism in a tracheal aspirate sample were expected to be on mechanical ventilation for ≧3 days.
Each adult patient received 3 escalating doses of a mixture of 50 mg/mL amikacin and 20 mg/mL fosfomycin, with doses separated by 24±2 hours (Table 1).
All treatments were administered with a single patient, multi-treatment nebulizer (Investigational eFlow® Inline Nebulizer System; PARI Pharma GMBH, Starnberg, Germany), positioned in the inspiratory tubing between the ventilator and the patient. The nebulizer remained inline until all treatments were delivered.
A placebo: 0.9% normal saline, having a volume matched to the antibiotic dosing schedule was delivered via the PARI Investigational eFlow® Inline Nebulizer System in mechanically ventilated patients.
The eFlow® Inline Nebulizer System was positioned in the inspiratory tubing between the Puritan Bennett 840 Ventilator and the patient. Once in place, the nebulizer remained inline until all study-drug doses were delivered. Humidification continued during the nebulization of the formulation and the delivery of the entire dose.
Patients are male or female between 18 years and 80 years of age with clinical diagnosis of VAP or VAT, a Gram-positive or Gram-negative bacteria on Gram stain of the tracheal aspirate and were expected to be on mechanical ventilation for at least three days.

A short description of data set [6]: Aerosol particle size distribution (MMAD) in dog study. Format: physicochemical. The following applies: analytical methods, eFlow Inline Nebulizer aerosol.
The test system of data set [7] is Pseudomonas aeruginosa. The following applies: 1477 Pseudomonas aeruginosa isolates, Zhanel et al.; cited from earlier work.
Data set [8] in a line: in vivo. Further details: species or system beagle dogs. The following applies: both sexes, beagle, dog, delivered as combination antibiotic aerosol, 7-day treatment. How it is done:
Aerosol concentrations were determined on Days 1 and 7.

Data set [9] has as its system methicillin-resistant Staphylococcus aureus (MRSA). As to conditions: 148 MRSA isolates, data from the 1980s; cited from earlier work.
The conditions of data set [10]: of water; cited from earlier work.
For data set [11] the following is noted: inhaled; cited from earlier work.
The mark [12] stands for this setting: read-out: Median (MIC50) Amikacin MIC.
Setting [13] is: read-out: Median (MIC50) Fosfomycin MIC.

In brackets after ≈: the same amount, converted by molar mass. Where a name gives a salt, the structure may show the parent alone. Read-outs that look alike come from different tables or passages of the source.

Turning to `NCC[C@H](O)C(=O)N[C@@H]1C[C@H](N)[C@@H](O[C@H]2O[C@H](CN)[C@@H](O)[C@H](O)[C@H]2O)[C@H](O)[C@H]1O[C@H]1O[C@H](CO)[C@@H](O)[C@H](N)[C@H]1O` [Amikacin base], in [1], the pH result was “approximately 11”.

As for `NCC[C@H](O)C(=O)N[C@@H]1C[C@H](N)[C@@H](O[C@H]2O[C@H](CN)[C@@H](O)[C@H](O)[C@H]2O)[C@H](O)[C@H]1O[C@H]1O[C@H](CO)[C@@H](O)[C@H](N)[C@H]1O` [Amikacin, amikacin], the MIC50 was determined as 256 µg/mL (≈ 437 µM) in the data set with Klebsiella pneumoniae (setting [12]), 8 µg/mL (≈ 13.7 µM) with Acinetobacter baumannii (setting [12]), 128 µg/mL (≈ 219 µM) in the data set with Pseudomonas aeruginosa [4] (setting [12]) and 128 µg/mL (≈ 219 µM) in data set [5] (setting [12]). Moreover, the MIC with Acinetobacter baumannii (5 A. baumannii isolates with high amikacin resistance) is over 1020 µg/mL. Moreover, the “MIC 90” value in [2] is over 64 µg/mL; in the data set on Pseudomonas aeruginosa [7], 32 µg/mL (≈ 54.6 µM). Also, in “in vivo [3]”, the Cmax lay in the range of 13200 to 39300 ng/mL. In the data set “in vivo [3]”, the “accumulation following repeat dosing” value is recorded as “no clear indication of accumulation”. In data set [5] (FIG. 4), the “amikacin concentration required to inhibit all 62 isolates” value was over 1024 µg/mL. In addition, the Kp in the data set “clinical” is over 2000. Further, in “clinical”, the “Mean amikacin Cmax in tracheal aspirate, fold higher than MIC 90 for P. aeruginosa” value is on record as at least 406 fold. For the same molecule, the “amikacin Cmax in tracheal aspirate, fold higher than MIC90 of P. aeruginosa” value in the data set “clinical” was at least 89 fold. Moreover, the “particle size distribution (MMAD)” value in [6] is 2.80 μm. Also, the NOAEL at 7 days in the data set “in vivo [8]” was 117 mg/kg/day.

For `C[C@@H]1O[C@@H]1P(=O)(O)O` [Fosfomycin, fosfomycin], the MIC50 in the data set with Klebsiella pneumoniae (setting [13]) amounted to 25.6 µg/mL (≈ 185 µM). In addition, in the data set on Acinetobacter baumannii (setting [13]), the MIC50 came out at 205 µg/mL (≈ 1480 µM). Also, in the data set “in vivo [3]”, the Cmax was 8700 to 28700 ng/mL and the “accumulation following repeat dosing” value is on record as “no clear indication of accumulation”. Besides, the MIC50 with Pseudomonas aeruginosa [4] (setting [13]) was found to be 51.2 µg/mL (≈ 371 µM). In data set [5] (setting [13]), the MIC50 was determined as 51.2 µg/mL (≈ 371 µM). Further, the “MIC 90” value in data set [9] is 32 µg/mL (≈ 232 µM). In the data set “clinical”, the Kp was over 2000; the “Mean fosfomycin Cmax in tracheal aspirate, fold higher than MIC 90 for MRSA” value turned out to be 281 fold; the “fosfomycin Cmax in tracheal aspirate, fold higher than MIC 90 of MRSA” value was at least 54 fold. In “clinical” (6 h), the “fosfomycin tracheal aspirate concentrations, fold above the MIC 90 for MRSA” value was at least 2.2 fold. For the same molecule, the “particle size distribution (MMAD)” value in data set [6] is on record as 2.75 μm. Also, the NOAEL at 7 days in the data set “in vivo [8]” turned out to be 47.5 mg/kg/day.

`C[C@@H]1O[C@@H]1P(=O)(O)O` [disodium salt of fosfomycin, Fosfomycin disodium]: the solubility in [10] is 50 mg/mL.

Consider `NC[C@H]1O[C@H](O[C@H]2[C@H](O)[C@@H](O[C@H]3O[C@H](CO)[C@@H](O)[C@H](N)[C@H]3O)[C@H](N)C[C@@H]2N)[C@H](N)C[C@@H]1O` [tobramycin], for which, in data set [11], the airway half-life result is “about 2 hours”.

Usually MIC50 stands for the lowest concentration that inhibits either 50% of growth or 50% of the strains tested, depending on the study. The term MIC denotes the least concentration at which growth counts as inhibited. High values mean a need for much substance, low ones inhibition by little substance. The term Cmax denotes the peak of the concentration-time curve. One may read the NOAEL as the highest tested level that showed no adverse finding. The term solubility denotes the dissolved amount per volume that the medium holds.
